Molecules are shown by their SMILES. Where a name gives a salt, the structure may show the parent alone.

The target in the experiment is AKT1 (Homo sapiens (Human), UniProt P31749). The experiment can be described thus: Inactive Akt Alpha Screen Assay. As to conditions: non *labeled: Akt Alpha Screen assay; read-out: AKT1 biochemical assay, IC50. On the procedure: AKT1 activity was assayed using the GSK3-derived biotinylated peptide substrate, crosstide (biotin-[…]), and AlphaScreen™ (Amplified Luminescent Proximity Homogeneous Assay) technology. AKT1 activation was achieved by the addition of the activating kinases PDK1 and MAPKAPK2, lipid vesicles, and ATP. The extent of peptide phosphorylation was determined using a phospho-AKT substrate antibody and acceptor beads conjugated to Protein A and donor beads conjugated to streptavidin that bind to the biotin on the peptide. Excitation of the donor beads converted ambient oxygen to excited singlet oxygen which, when in close proximity to acceptor beads, reacted with acceptor beads resulting in signal amplification. […] The plates were incubated for 30 minutes at room temperature, and then stopped in the dark by the addition of 10 μL stop/detection mixture prepared in assay buffer containing EDTA, AlphaScreen™ Streptavidin Donor and Protein A Acceptor beads, and phospho-AKT substrate antibody for final concentrations of 10 mM EDTA, 500 ng/well of both AlphaScreen™ Streptavidin Donor beads and Protein A Acceptor beads, and phospho-AKT substrate antibody at a final dilution of 1:350. Assay plates were incubated for 90 minutes at room temperature in the dark, and the plates were read on a Perkin Elmer Envision Multilabel plate reader (excitation wavelength: […], emission wavelength: 570 nm). […] Envision Instrument Settings: • Instrument: Perkin Elmer Envision • Plate: 96 well • Program Name: • Excitation: Ex Top • Mirror: General Dual—Slot 2 • Excitation Filter: CFP430 Ex.
AKT1, sequence (P31749 whole entry): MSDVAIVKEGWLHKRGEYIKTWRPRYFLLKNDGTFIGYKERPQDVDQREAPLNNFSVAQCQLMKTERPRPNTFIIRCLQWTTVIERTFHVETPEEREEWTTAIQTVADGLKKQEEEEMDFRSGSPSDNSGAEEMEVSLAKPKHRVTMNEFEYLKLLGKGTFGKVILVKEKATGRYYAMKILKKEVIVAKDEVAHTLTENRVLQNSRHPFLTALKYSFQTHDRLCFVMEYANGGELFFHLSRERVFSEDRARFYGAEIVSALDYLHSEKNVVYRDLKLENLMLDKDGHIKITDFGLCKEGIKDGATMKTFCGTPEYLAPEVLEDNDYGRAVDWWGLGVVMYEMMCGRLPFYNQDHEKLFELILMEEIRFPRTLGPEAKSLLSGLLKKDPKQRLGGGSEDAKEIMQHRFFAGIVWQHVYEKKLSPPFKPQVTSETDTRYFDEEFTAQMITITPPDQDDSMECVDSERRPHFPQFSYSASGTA
For the molecule `Cc1cccc(NC(=O)NCc2ccc(-c3nnc4n3-c3cccnc3Nc3ccccc3-4)cc2)c1` [Example 125, 1-(4-(9H-benzo[f]pyrido[2,3-b][1,2,4]triazolo[4,3-d][1,4]diazepin-3-yl)benzyl)-3-(m-tolyl)urea], the IC50 came out at 480 nM.

For the molecule `O=S(=O)(NC1CCN(Cc2ccc(-c3nnc4n3-c3cccnc3Nc3ccccc3-4)cc2)CC1)c1ccccc1F` [Example 147, N-(1-(4-(9H-benzo[f]pyrido[2,3-b][1,2,4]triazolo[4,3-d][1,4]diazepin-3-yl)benzyl)piperidin-4-yl)-2-fluorobenzenesulfonamide], the IC50 was found to be 2300 nM.

As to `O=C(Nc1ccc(-c2nnc3n2-c2cccnc2Nc2ccccc2-3)cc1)c1cc(C(F)(F)F)cc(C(F)(F)F)c1` [Example 29, N-(4-(9H-benzo[f]pyrido[2,3-b][1,2,4]triazolo[4,3-d][1,4]diazepin-3-yl)phenyl)-3,5-bis(trifluoromethyl)benzamide], the IC50 worked out at 2500 nM.

`Cc1cccc2c1Nc1ncccc1-n1c(-c3ccc(C4(N)CCC4)cc3)nnc1-2` [Example 218, 1-(4-(10-methyl-9H-benzo[f]pyrido[2,3-b][1,2,4]triazolo[4,3-d][1,4]diazepin-3-yl)phenyl)cyclobutanamine]: the IC50 was determined as 1400 nM.

In the case of `N#Cc1cccc(C(=O)Nc2ccc(-c3nnc4n3-c3cccnc3Nc3ccccc3-4)cc2)c1` [Example 60, N-(4-(9H-benzo[f]pyrido[2,3-b][1,2,4]triazolo[4,3-d][1,4]diazepin-3-yl)phenyl)-3-cyanobenzamide], the IC50 stood at 76 nM.

For the molecule `Clc1ccc(-c2nnc3n2-c2cccnc2Nc2ccccc2-3)cc1` [Example 9, hydrochloride], the IC50 is 5100 nM.

`OC1(c2ccccc2)CCN(Cc2ccc(-c3nnc4n3-c3cccnc3Nc3ccccc3-4)cc2)CC1` [Example 80, 1-(4-(9H-benzo[f]pyrido[2,3-b][1,2,4]triazolo[4,3-d][1,4]diazepin-3-yl)benzyl)-4-phenylpiperidin-4-ol]: the IC50 turned out to be 1900 nM.

Turning to `CC(=O)Nc1ccc(S(=O)(=O)NCc2ccc(-c3nnc4n3-c3cccnc3Nc3ccccc3-4)cc2)cc1` [Example 120, N-(4-(N-(4-(9H-benzo[f]pyrido[2,3-b][1,2,4]triazolo[4,3-d][1,4]diazepin-3-yl)benzyl)sulfamoyl)phenyl) acetamide], the IC50 was 140 nM.

On to `O=C(Nc1cccc(F)c1)NC1CCN(Cc2ccc(-c3nnc4n3-c3cccnc3Nc3ccccc3-4)cc2)CC1` [Example 178, 1-(1-(4-(9H-benzo[f]pyrido[2,3-b][1,2,4]triazolo[4,3-d][1,4]diazepin-3-yl)benzyl)piperidin-4-yl)-3-(3-fluorophenyl)urea], for which the IC50 came to 790 nM.

Turning to `c1ccc2c(c1)Nc1ncccc1-n1c(-c3ccc4ccccc4c3)nnc1-2` [hydrochloride], the IC50 was found to be 29000 nM.

Regarding `CC(C)CS(=O)(=O)NC1CCN(Cc2ccc(-c3nnc4n3-c3cccnc3Nc3ccccc3-4)cc2)CC1` [Example 154, N-(1-(4-(9H-benzo[f]pyrido[2,3-b][1,2,4]triazolo[4,3-d][1,4]diazepin-3-yl)benzyl)piperidin-4-yl)-2-methylpropane-1-sulfonamide], the IC50 is 6400 nM.

`CC(C)(C)c1ccc(C(=O)Nc2ccc(-c3nnc4n3-c3cccnc3Nc3ccccc3-4)cc2)cc1` [Example 44, N-(4-(9H-benzo[f]pyrido[2,3-b][1,2,4]triazolo[4,3-d][1,4]diazepin-3-yl)phenyl)-4-(tert-butyl)benzamide]: the IC50 amounted to 230 nM.

Consider `c1ccc2c(c1)Nc1ncccc1-n1c(-c3ccc(CN4CCOCC4)cc3)nnc1-2` [Example 84, 4-(4-(9H-benzo[f]pyrido[2,3-b][1,2,4]triazolo[4,3-d][1,4]diazepin-3-yl)benzyl)morpholine], for which the IC50 worked out at 1600 nM.

For the molecule `O=S(=O)(NCc1ccc(-c2nnc3n2-c2cccnc2Nc2ccccc2-3)cc1)c1ccc(Cl)cc1` [Example 119, N-(4-(9H-benzo[f]pyrido[2,3-b][1,2,4]triazolo[4,3-d][1,4]diazepin-3-yl)benzyl)-4-chlorobenzenesulfonamide], the IC50 was found to be 220 nM.

For the molecule `O=c1[nH]c2ccccc2n1C1CCN(Cc2ccc(-c3nnc4n3-c3cccnc3Nc3ccccc3-4)cc2)CC1` [Example 24, 1-(1-(4-(9H-benzo[f]pyrido[2,3-b][1,2,4]triazolo[4,3-d][1,4]diazepin-3-yl)benzyl)piperidin-4-yl)-1H-benzo[d]imidazol-2(3H)-one], the IC50 came to 83 nM.

As to `O=S(=O)(Nc1ccc(-c2nnc3n2-c2cccnc2Nc2ccccc2-3)cc1)c1ccccc1` [Example 106, N-(4-(9H-benzo[f]pyrido[2,3-b][1,2,4]triazolo[4,3-d][1,4]diazepin-3-yl)phenyl)benzenesulfonamide], the 50% inhibitory concentration (IC50) amounted to 6600 nM.

For `O=C(Nc1ccc(-c2nnc3n2-c2cccnc2Nc2ccccc2-3)cc1)c1cc2ccccc2s1` [Example 42, N-(4-(9H-benzo[f]pyrido[2,3-b][1,2,4]triazolo[4,3-d][1,4]diazepin-3-yl)phenyl)benzo[b]thiophene-2-carboxamide], the IC50 amounted to 360 nM.

As for `O=C(Nc1ccc(-c2nnc3n2-c2cccnc2Nc2ccccc2-3)cc1)c1ccccc1F` [Example 51, N-(4-(9H-benzo[f]pyrido[2,3-b][1,2,4]triazolo[4,3-d][1,4]diazepin-3-yl)phenyl)-2-fluorobenzamide], the IC50 came out at 110 nM.

As to `O=C(Nc1ccc2c(c1)CCO2)NC1CCN(Cc2ccc(-c3nnc4n3-c3cccnc3Nc3ccccc3-4)cc2)CC1` [Example 175, 1-(1-(4-(9H-benzo[f]pyrido[2,3-b][1,2,4]triazolo[4,3-d][1,4]diazepin-3-yl)benzyl)piperidin-4-yl)-3-(2,3-dihydrobenzofuran-5-yl)urea], the IC50 turned out to be 530 nM.

Turning to `COc1cccc(CNC(=O)NC2CCN(Cc3ccc(-c4nnc5n4-c4cccnc4Nc4ccccc4-5)cc3)CC2)c1` [Example 171, 1-(1-(4-(9H-benzo[f]pyrido[2,3-b][1,2,4]triazolo[4,3-d][1,4]diazepin-3-yl)benzyl)piperidin-4-yl)-3-(3-methoxybenzyl)urea], the IC50 was 780 nM.

For the molecule `COc1ccc(C(=O)Nc2ccc(-c3nnc4n3-c3cccnc3Nc3ccccc3-4)cc2)cc1` [Example 31, N-(4-(9H-benzo[f]pyrido[2,3-b][1,2,4]triazolo[4,3-d][1,4]diazepin-3-yl)phenyl)-4-methoxybenzamide], the IC50 is 160 nM.

Regarding `O=C(Cc1cccc2ccccc12)Nc1ccc(-c2nnc3n2-c2cccnc2Nc2ccccc2-3)cc1` [Example 35, N-(4-(9H-benzo[f]pyrido[2,3-b][1,2,4]triazolo[4,3-d][1,4]diazepin-3-yl)phenyl)-2-(naphthalen-1-yl)acetamide], the IC50 was found to be 950 nM.

For `CC(C)(C)OC(=O)NC1CCN(Cc2ccc(-c3nnc4n3-c3cccnc3Nc3ccccc3-4)cc2)CC1` [Example 201, tert-butyl (1-(4-(9H-benzo[f]pyrido[2,3-b][1,2,4]triazolo[4,3-d][1,4]diazepin-3-yl)benzyl)piperidin-4-yl)carbamate], the 50% inhibitory concentration (IC50) was found to be 1900 nM.

On to `O=C(Nc1ccc(F)cc1)NC1CCN(Cc2ccc(-c3nnc4n3-c3cccnc3Nc3ccccc3-4)cc2)CC1` [Example 165, 1-(1-(4-(9H-benzo[f]pyrido[2,3-b][1,2,4]triazolo[4,3-d][1,4]diazepin-3-yl)benzyl)piperidin-4-yl)-3-(4-fluorophenyl)urea], for which the IC50 came out at 330 nM.

As to `O=S(=O)(NC1(c2ccc(-c3nnc4n3-c3cccnc3Nc3ccccc3-4)cc2)CCC1)c1cccc(F)c1` [Example 204, N-(1-(4-(9H-benzo[f]pyrido[2,3-b][1,2,4]triazolo[4,3-d][1,4]diazepin-3-yl)phenyl)cyclobutyl)-3-fluorobenzenesulfonamide], the IC50 turned out to be 760 nM.

As for `O=S(=O)(CC1CCCCC1)NC1CCN(Cc2ccc(-c3nnc4n3-c3cccnc3Nc3ccccc3-4)cc2)CC1` [Example 148, N-(1-(4-(9H-benzo[f]pyrido[2,3-b][1,2,4]triazolo[4,3-d][1,4]diazepin-3-yl)benzyl)piperidin-4-yl)-1-cyclohexylmethanesulfonamide], the IC50 turned out to be 3400 nM.

Regarding `Cc1ccc(CN2CCN(Cc3ccc(-c4nnc5n4-c4cccnc4Nc4ccccc4-5)cc3)CC2)cc1` [Example 91, 3-(4-((4-(4-methylbenzyl)piperazin-1-yl)methyl)phenyl)-9H-benzo[f]pyrido[2,3-b][1,2,4]triazolo[4,3-d][1,4]diazepine], the IC50 came out at 2800 nM.

For `Cc1noc(C)c1S(=O)(=O)NC1CCN(Cc2ccc(-c3nnc4n3-c3cccnc3Nc3ccccc3-4)cc2)CC1` [Example 146, N-(1-(4-(9H-benzo[f]pyrido[2,3-b][1,2,4]triazolo[4,3-d][1,4]diazepin-3-yl)benzyl)piperidin-4-yl)-3,5-dimethylisoxazole-4-sulfonamide], the IC50 is 6800 nM.

On to `O=C(c1ccc(F)c(F)c1)N1CCN(Cc2ccc(-c3nnc4n3-c3cccnc3Nc3ccccc3-4)cc2)CC1` [Example 143, (4-(4-(9H-benzo[f]pyrido[2,3-b][1,2,4]triazolo[4,3-d][1,4]diazepin-3-yl)benzyl)piperazin-1-yl)(3,4-difluorophenyl)methanone], for which the IC50 amounted to 4900 nM.

With `COC(=O)c1ccc(-c2nnc3n2-c2cccnc2Nc2ccccc2-3)cc1` [Example 25, methyl 4-(9H-benzo[f]pyrido[2,3-b][1,2,4]triazolo[4,3-d][1,4]diazepin-3-yl)benzoate], the IC50 was found to be 2600 nM.

The record behind these values is patent publication US8541407B2 (ArQule, Inc., priority 2010, dated 2013).
